The results in this text go back to patent US6126909A, “Process and apparatus for the production of BI-212 and a use thereof” (Arch Development Corporation, priority 1999, dated 2000).

Molecules are shown by their SMILES. Where “and” joins values, the source holds several entries; their conditions need not be identical. Equal entries are not always repeated.

The series is described as follows: Biodistribution after intraperitoneal instillation. Type of series: in vivo, rabbit. As for the experimental part: In vivo studies were conducted to determine the distribution of Bi-212 produced using the above-noted process and to compare the Bi-212 distribution to the distribution of Pb-212 ferrous hydroxide in colloidal form. The in vivo studies were conducted using white, female New Zealand rabbits weighing about 4.5 kilograms ([…]) each. Studies were also conducted using rabbits to determine the toxicity levels, e.g., the maximum tolerated dose. Efficacy studies were conducted using 25 gram (gm) female Swiss-Webster mice inoculated with Ehrlich-Lettre Ascites carcinoma cells.
The rabbits were first anesthetized by intravenous titration. A polyethylene catheter was then inserted into the lower right quadrant of the rabbits' abdominal cavities and a trace amount of technetium-99m pertechnetate was instilled to confirm that the catheter was correctly placed.
Groups of rabbits were instilled with a varying amounts (correlating to varying activities) of Bi-212 that were prepared in accordance with the before-described process, neutralized to pH values of between 5.0 and 7.4, and had added thereto a quantity of normal saline to make a 200 cc sample. To compare the distribution of Bi-212, Pb-212 ferrous hydroxide was prepared in accordance with known methods. Rotmensch et al., Gynecol. Oncol., 35:297-300 (1989). Groups of rabbits were also instilled with the Pb-212 ferrous hydroxide preparation.
After instillation, the rabbits were rotated and imaged with a gamma camera set at 2.6 MeV. Where localization of the nuclide was identified in the rabbits, the rabbits were sacrificed and the localized area was excised and photographed.
Of the groups of rabbits instilled with the Bi-212 solution, a rabbit was imaged and necropsied at each of one-half hour, one hour and three hours after instillation. The percent injected activity (%IA) in each organ was measured to determine the distribution of the Bi-212(Table 6). To determine whether chelating to DTPA improved the retention of Bi-212 in the peritoneal fluid, a group of rabbits was instilled with Bi-212 DTPA, and was imaged and necropsied at three hours following instillation. The percent activity remaining in the peritoneal fluid was measured.

Where [1] appears, read: 1/2 hour after intraperitoneal instillation.
[2] abbreviates: 1 hour after intraperitoneal instillation.
Setting [3] is: 3 hours after intraperitoneal instillation.

With `[212Bi]` [Bi-212, bismuth-212], under setting [1], the Peritoneal fluid is 85.0 % IA and 70.3 % IA and 90.1 % IA; the Stomach was 0.26 % IA and 0.34 % IA. Under setting [2], the “Lower intestine & colon” value worked out at 0.87 % IA; the Peritoneal fluid was 85.7 % IA and 85.1 % IA and 88 % IA; the Stomach is given as 0.09 % IA. In addition, under setting [3], the Circulating blood was 3.4 % IA and 1.86 % IA and 2.96 % IA; the Kidney is 2.15 % IA and 1.21 % IA and 2.10 % IA; the Liver is 2.26 % IA and 2.25 % IA and 1.17 % IA; the “Lower intestine & colon” value is 7.14 % IA and 5.87 % IA and 9.14 % IA. Under setting [3], the Peritoneal fluid was 75.8 % IA and 80.2 % IA and 83.8 % IA; the Reproductive organs was 0.53 % IA and 0.61 % IA and 0.59 % IA; the Stomach is 0.90 % IA and 0.76 % IA and 0.59 % IA; the Upper small intestine was 8.04 % IA and 6.63 % IA and 9.73 % IA.
